Experiments:
[1] = biological target: rEhAPSK (Entamoeba histolytica, UniProt C4LUW9); assay: 96-well plate-based in vitro APSK activity assay (coupling assay, NADH decrease); format: biochemical; details: 10 μM compound, 1% DMSO
Method: (§1) A coupling assay to measure APSK activity was performed as described except a 96-well plate was used. Briefly, each well contained 100 μL reaction mixture, which consisted of 90 μL coupling solution and 10 μL of either compound solution (see below) or 10% DMSO. […] The coupling solution was 100 mM Tris/HCl (pH 8.0), 1 mM MgCl2, 1 mM KCl, 5 mM Mg2ATP, 1 mM NADH, 1 mM PEP, 1 U NP1, 3.5 U PK, 5.0 U LDH, and APSK (≤3 μL). […] As controls, in place of purified APSK solution (rEhAPSK or rHsAPSK), 3 μL of a blank [50 mM Tris/HCl buffer (pH 8.0)], a solvent (elution buffer), a mock (rEhSF2), or denatured APSK suspensions obtained by heat-treatment, were added to the coupling solution. The activity of each sample was calculated after removing the baseline value of the blank control.
(§2) For the inhibition assay, 2 μL of each stock solution, which were distributed in a 96-well plate, were transferred to a new plate to make a replicate. After adding 18 μL deionized water to each well and mixing, 10 μL of each diluted solution (100 μM compound solution) was again transferred into a new 96-well plate to make a replicate. Then 90 μL of the coupling solution prepared above was dispensed into each well containing the previously added 10 μL of 100 μM compound solution. As a solvent control, 10% DMSO solution (vol/vol-deionized water) was used in place of compound solution. The final concentrations of each compound and DMSO in a well were 10 μM and 1% (vol/vol), respectively. The assays were performed independently three times, and data are shown as the mean with SD.
One millimolar stock solutions used were either thawed in a replicate (96-well plate) prepared in [18] […] Subsequently, 3.4 μL of the 1 mM and each diluted stock solution were dispensed into wells of a 96-well culture plate, containing 30.6 μL deionized water and mixed well by pipetting. Ten microliters of all resulting solutions were then dispensed into wells of a 96-well plate to make triplicates and then used as described for the above inhibition assay. 10% DMSO solution was used as an inhibitor-free control. Note that the final DMSO concentration in any well was 1% (vol/vol).
(§3) In all assays, prepared mixtures in a plate were mixed on a vibrating table equipped with either an EnVision or ARVO plate reader (PerkinElmer) before starting the reaction.

[2] = biological target: T1, rHsAPSK (recombinant APSK domain of HsPAPSS1) (Homo sapiens, UniProt O43252); assay: as above; format: biochemical; details: 10 μM compound, 1% DMSO
T1 construct: APSK domains of HsPAPSS1 (Ala^25—Pro^227) and -2 (Ser^15—Pro^217); His tag (pCold-I vector); made in house; host or cells: E. coli BL21(DE3)
T1 sequence (O43252 25-227): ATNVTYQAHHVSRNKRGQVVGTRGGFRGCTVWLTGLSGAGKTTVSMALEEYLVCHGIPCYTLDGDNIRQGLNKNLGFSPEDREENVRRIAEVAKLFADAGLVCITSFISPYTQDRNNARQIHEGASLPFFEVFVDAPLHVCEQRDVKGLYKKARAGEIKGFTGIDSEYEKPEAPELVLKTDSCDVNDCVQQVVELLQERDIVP
Method: as §1, §2, §3

[3] = test system: E. invadens cyst formation; assay: E. invadens cyst formation (encystation) assay (flow cytometry); format: cell-based, Entamoeba invadens; details: compound added at 48 h post-induction (48–72 h)
Method: E. histolytica trophozoite proliferation and E. invadens cyst formation assays were performed essentially as described in [18] except that in addition to 0–72 and 48–72 h cyst formation assays, 0–96 and 0–120 h, and 48–96 and 48–120 h assays were also performed.

[4] = test system: Human foreskin fibroblast (HFF) cells; assay: WST-1-based cytotoxicity assay
Method: Human foreskin fibroblast (HFF) cells (purchased from ATCC) were routinely maintained in DMEM supplemented with 10% fetal bovine serum, 100 units/ml penicillin, […] and 1% GlutaMAX™-I (Thermo Fisher Scientific, Waltham, MA). A WST-1-based cytotoxicity assay was performed as previously described. In detail, HFF cells were plated at 1.0×10^4 cells/100 μL medium in each well of a 96-well culture plate, and incubated overnight at 37°C in a 5% CO2 atmosphere to allow cells to adhere to the wells. […] Numbers of viable cells were then assessed using the Premix WST-1 Cell Proliferation Assay System (Takara). […] DMSO was added at 1% as a negative control whereas ionomycin was added at 30 μM as a positive control. As a blank, the above culture medium was used in place of the solutions added.

[5] = test system: sulfolipids synthesized in E. histolytica trophozoites; assay: Metabolic labeling by [35S]-labeled sulfate, sulfolipid synthesis; format: cell-based, Entamoeba histolytica; details: 6 h treatment; A-D-11, A-H-11 6.25-100 μM, E-H-05 0.5-8 μM
Method: Metabolic labeling of E. histolytica trophozoites by [^35S]-labeled sulfate was performed essentially as described previously with slight modification. […] Each 10 mM stock solution (in DMSO) of the three commercially sourced compounds was serially diluted by 2-fold decrements with DMSO. The resulting diluted solutions were then added to 0.75 ml cell suspension in BI-S-33 medium at 1/100 (vol/vol). […] Note that DMSO was used as a solvent control at 1%, which was the DMSO concentration in all samples analyzed. [^35S]-labeled sulfate (45 μCi) was added 4 h after the start of treatments and labeled cells were harvested at 6 h. […] Each spot on the TLC plates was quantified using a Fuji imaging analyzer and Multi Gauge 2.2 software (FLA-7000; Fujifilm, Japan). The total cell protein was estimated using a Pierce BCA protein assay kit (Thermo Scientific, Rockford, IL, USA).

[6] = test system: E. histolytica trophozoite; design: method as in PMID 30087858; details: ref [18], cited from earlier work
[7] = test system: E. invadens cyst formation; design: method as in PMID 30087858; details: ref [18], cited from earlier work
[8] = test system: recombinant EhTrxR; design: method as in PMID 22610278, PMID 26876147; details: ref [19], [59]; cited from earlier work

Sequence of rEhAPSK (C4LUW9 entry or part of it): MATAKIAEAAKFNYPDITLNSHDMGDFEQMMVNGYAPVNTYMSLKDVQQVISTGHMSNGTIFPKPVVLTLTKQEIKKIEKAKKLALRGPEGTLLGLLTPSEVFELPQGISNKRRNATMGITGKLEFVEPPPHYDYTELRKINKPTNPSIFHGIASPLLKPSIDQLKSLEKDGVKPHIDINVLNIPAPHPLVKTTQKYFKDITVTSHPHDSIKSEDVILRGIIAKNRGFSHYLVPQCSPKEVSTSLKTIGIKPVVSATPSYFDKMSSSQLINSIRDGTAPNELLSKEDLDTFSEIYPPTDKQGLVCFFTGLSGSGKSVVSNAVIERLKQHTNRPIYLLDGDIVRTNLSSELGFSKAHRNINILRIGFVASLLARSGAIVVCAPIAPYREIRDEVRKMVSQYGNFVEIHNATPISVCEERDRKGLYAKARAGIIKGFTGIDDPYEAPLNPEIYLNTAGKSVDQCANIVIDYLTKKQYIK

**Q.** With auranofin [E-H-05, reference compound] as the substance, how does the “Inhibition of rEhAPSK activity” value [1] read?
**A.** Its value is “reproducibly inhibited rEhAPSK activity”.

**Q.** What about the “Inhibition of rHsAPSK activity” value [2] of the same substance?
**A.** The value was “none showed any inhibitory activity against HsAPSK”.

**Q.** And the “Number of cysts formed at 72 h” value [3]?
**A.** Its value is “did not affected the number of cyst formed at 72 h”.

**Q.** What about the “Number of viable HFF cells relative to 1% DMSO control (set as 100%)” value ([4]; 10 μM, 48 h) of the same substance?
**A.** The value was under 10%.

**Q.** And the IC50 ([4]; read-out: Cytotoxicity (HFF) IC50, 48 h exposure, WST-1)?
**A.** Its IC50 is 4000 ± 1400 nM.

**Q.** What about the “Amount of sulfolipids synthesized” value [5] of the same substance?
**A.** The value was “dose-dependently reduced the amount of sulfolipids synthesized”.

**Q.** What about the “Effect on trophozoite proliferation” value ([6]; 10 μM) of the same substance?
**A.** Its value is “negative effects”.

**Q.** What about the IC50 ([6]; average ± SD, read-out: Trophozoite proliferation IC50) of the same substance?
**A.** Its IC50 is 650 ± 180 nM.

**Q.** And the “Effect on cyst formation” value ([7]; 10 μM)?
**A.** The value was “negative effects”.

**Q.** What about the IC50 ([7]; average ± SD) of the same substance?
**A.** Its IC50 is 1730 ± 700 nM.

**Q.** And the IC50 [8]?
**A.** The IC50 was 400 nM.

Reference: article PMC6715247 (PLoS Neglected Tropical Diseases, 2019)
